Assay results from patent US6737383B1, “Herbicidal oxadiazolidines” (priority 1999, dated 2004).

Columns and labels:
smallflower flatsedge = experiment: Test B flood test smallflower flatsedge; format: in vivo, Cyperus difformis
How it was run: (§1)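 Plants were grown to the 2-leaf stage before treatment with test chemical, then held in a greenhouse for twelve to sixteen days. Injury was visually rated against untreated controls on a 0–10 scale, where 0 is no effect and 10 is complete control.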

sugar beet = experiment: Test B pre/postemergence sugar beet; format: in vivo, Beta vulgaris
How it was run: (§2)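 Herbicidal effect was estimated by eye on a ten-point control scale after plants spent twelve to sixteen days in a greenhouse following soil or foliar treatment. Foliar sprays targeted plants at one to four leaves; all doses were formulated in a non-phytotoxic solvent with surfactant.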

velvetleaf = experiment: Test B pre/postemergence velvetleaf; format: in vivo, Abutilon theophrasti
How it was run: as §2

cocklebur = experiment: Test B pre/postemergence cocklebur; format: in vivo, Xanthium strumarium
How it was run: as §2

pigweed = experiment: Test B pre/postemergence pigweed; format: in vivo, Amaranthus retroflexus
How it was run: as §2

soybean = experiment: Test B pre/postemergence soybean; format: in vivo, Glycine max
How it was run: as §2

purple nutsedge = experiment: Test B pre/postemergence purple nutsedge; format: in vivo, Cyperus rotundus
How it was run: as §2

wild oat = experiment: Test B pre/postemergence wild oat; format: in vivo, Avena fatua
How it was run: as §2

bamyardgrass = experiment: Test B flood test barnyardgrass; format: in vivo, Echinochloa crus-galli
How it was run: as §1

corn = experiment: Test B pre/postemergence corn; format: in vivo, Zea mays
How it was run: as §2

rice = experiment: Test B flood test rice; format: in vivo, Oryza sativa
How it was run: as §1

surinam grass = experiment: Test B pre/postemergence surinam grass; format: in vivo, Brachiaria decumbens
How it was run: as §2

rape = experiment: Test B pre/postemergence rape; format: in vivo, Brassica napus
How it was run: as §2

bedstraw = experiment: Test B pre/postemergence bedstraw; format: in vivo, Galium aparine; conditions: Postemergence
How it was run: as §2

morningglory = experiment: Test B pre/postemergence morningglory; format: in vivo, Ipomoea hederacea
How it was run: as §2

blackgrass = experiment: Test B pre/postemergence blackgrass; format: in vivo, Alopecurus myosuroides
How it was run: as §2

[1] = Postemergence block (flood test species), Rate 250 g/ha, scale 0 to 10
[2] = Postemergence section (flood test species), Rate 500 g/ha, scale of 0 to 10 where 0 is no effect and 10 is complete control
[3] = Rate 125 g/ha, Postemergence section (flood test species), scale 0 to 10, 0 is no effect, 10 is complete control
[4] = Postemergence, Rate 250 g/ha, scale 0 to 10
[5] = Postemergence, Rate 500 g/ha, scale of 0 to 10 where 0 is no effect and 10 is complete control
[6] = Preemergence, Rate 62 g/ha, scale 0 to 10 (0 no effect, 10 complete control)
[7] = Preemergence, Rate 125 g/ha, scale of 0 to 10 where 0 is no effect and 10 is complete control
[8] = Preemergence, Rate 250 g/ha, scale 0 to 10, 0 is no effect, 10 is complete control
[9] = Preemergence, Rate 500 g/ha, scale 0 to 10, 0 is no effect, 10 is complete control
[10] = Rate 125 g/ha, Postemergence, scale 0 to 10, 0 is no effect, 10 is complete control
[11] = Rate 62 g/ha, Postemergence, scale of 0 to 10 where 0 is no effect and 10 is complete control

CC(C)N(C(=O)n1oc(=O)n(CCC#N)c1=O)c1ccc(F)cc1F [Compound 433]
S. Flatsedge plant response rating (smallflower flatsedge; [1]): 0
S. Flatsedge plant response rating (smallflower flatsedge; [2]): 0
S. Flatsedge plant response rating (smallflower flatsedge; [3]): 0
Sugarbeets plant response rating (sugar beet; [4]): 0
Sugarbeets plant response rating (sugar beet; [5]): 0
Plant response rating, Sugarbeets (sugar beet; [6]): 0
Plant response rating, Sugarbeets (sugar beet; [7]): 2
Sugarbeets plant response rating (sugar beet; [8]): 4
Sugarbeets plant response rating (sugar beet; [9]): 8
Sugarbeets plant response rating (sugar beet; [10]): 0
Velvetleaf plant response rating (velvetleaf; [4]): 2
Velvetleaf plant response rating (velvetleaf; [5]): 4
Plant response rating, Velvetleaf (velvetleaf; [6]): 2
Plant response rating, Velvetleaf (velvetleaf; [7]): 2
Velvetleaf plant response rating (velvetleaf; [8]): 4
Velvetleaf plant response rating (velvetleaf; [9]): 6
Velvetleaf plant response rating (velvetleaf; [10]): 0
Cocklebur plant response rating (cocklebur; [4]): 0
Cocklebur plant response rating (cocklebur; [5]): 0
Plant response rating, Cocklebur (cocklebur; [6]): 0
Plant response rating, Cocklebur (cocklebur; [7]): 0
Cocklebur plant response rating (cocklebur; [8]): 2
Cocklebur plant response rating (cocklebur; [9]): 3
Cocklebur plant response rating (cocklebur; [11]): 0
Cocklebur plant response rating (cocklebur; [10]): 0
Redroot pigweed plant response rating (pigweed; [4]): 2
Redroot pigweed plant response rating (pigweed; [5]): 3
Plant response rating, Redroot pigweed (pigweed; [6]): 0
Plant response rating, Redroot pigweed (pigweed; [7]): 4
Redroot pigweed plant response rating (pigweed; [8]): 7
Redroot pigweed plant response rating (pigweed; [9]): 10
Redroot pigweed plant response rating (pigweed; [10]): 0
Soybean plant response rating (soybean; [4]): 2
Soybean plant response rating (soybean; [5]): 2
Plant response rating, Soybean (soybean; [6]): 0
Plant response rating, Soybean (soybean; [7]): 0
Soybean plant response rating (soybean; [8]): 0
Soybean plant response rating (soybean; [9]): 0
Soybean plant response rating (soybean; [10]): 2
Nutsedge plant response rating (purple nutsedge; [4]): 0
Nutsedge plant response rating (purple nutsedge; [5]): 0
Plant response rating, Nutsedge (purple nutsedge; [6]): 0
Plant response rating, Nutsedge (purple nutsedge; [7]): 0
Nutsedge plant response rating (purple nutsedge; [8]): 0
Nutsedge plant response rating (purple nutsedge; [9]): 0
Nutsedge plant response rating (purple nutsedge; [10]): 0
Wild oats plant response rating (wild oat; [4]): 0
Wild oats plant response rating (wild oat; [5]): 2
Plant response rating, Wild oats (wild oat; [6]): 2
Plant response rating, Wild oats (wild oat; [7]): 6
Wild oats plant response rating (wild oat; [8]): 6
Wild oats plant response rating (wild oat; [9]): 8
Wild oats plant response rating (wild oat; [10]): 0
Barnyardgrass plant response rating (bamyardgrass; [1]): 0
Barnyardgrass plant response rating (bamyardgrass; [2]): 0
Barnyardgrass plant response rating (bamyardgrass; Rate 62 g/ha, Postemergence (flood test species), scale of 0 to 10 where 0 is no effect and 10 is complete control): 0
Barnyardgrass plant response rating (bamyardgrass; [3]): 0
Corn plant response rating (corn; [4]): 0
Corn plant response rating (corn; [5]): 3
Plant response rating, Corn (corn; [6]): 0
Plant response rating, Corn (corn; [7]): 0
Corn plant response rating (corn; [8]): 0
Corn plant response rating (corn; [9]): 0
Corn plant response rating (corn; [11]): 0
Corn plant response rating (corn; [10]): 0
Rice plant response rating (rice; [1]): 0
Rice plant response rating (rice; [2]): 0
Rice plant response rating (rice; [3]): 0
B. signalgrass plant response rating (surinam grass; Postemergence, Rate 250 g/ha, scale 0 to 10, 0 no effect, 10 complete control): 3
B. signalgrass plant response rating (surinam grass; [5]): 6
Plant response rating, B. signalgrass (surinam grass; [6]): 2
Plant response rating, B. signalgrass (surinam grass; [7]): 2
B. signalgrass plant response rating (surinam grass; [8]): 2
B. signalgrass plant response rating (surinam grass; [9]): 6
B. signalgrass plant response rating (surinam grass; [11]): 0
B. signalgrass plant response rating (surinam grass; [10]): 1
Rape plant response rating (rape; [4]): 0
Rape plant response rating (rape; [5]): 0
Plant response rating, Rape (rape; [6]): 0
Plant response rating, Rape (rape; [7]): 0
Rape plant response rating (rape; [8]): 3
Rape plant response rating (rape; [9]): 7
Rape plant response rating (rape; [10]): 0
Bedstraw plant response rating (bedstraw; Rate 250 g/ha, scale 0 to 10): 5
Bedstraw plant response rating (bedstraw; Rate 500 g/ha, scale of 0 to 10 where 0 is no effect and 10 is complete control): 7
Bedstraw plant response rating (bedstraw; Rate 125 g/ha, scale 0 to 10, 0 is no effect, 10 is complete control): 2
Morningglory plant response rating (morningglory; [4]): 4
Morningglory plant response rating (morningglory; [5]): 7
Plant response rating, Morningglory (morningglory; [6]): 0
Plant response rating, Morningglory (morningglory; [7]): 0
Morningglory plant response rating (morningglory; [8]): 2
Morningglory plant response rating (morningglory; [9]): 3
Morningglory plant response rating (morningglory; [10]): 2
Blackgrass plant response rating (blackgrass; [4]): 7
Blackgrass plant response rating (blackgrass; [5]): 10
Plant response rating, Blackgrass (blackgrass; [6]): 2
Plant response rating, Blackgrass (blackgrass; [7]): 2
Blackgrass plant response rating (blackgrass; [8]): 3
Blackgrass plant response rating (blackgrass; [9]): 9
Blackgrass plant response rating (blackgrass; [11]): 2
Blackgrass plant response rating (blackgrass; [10]): 5
